PubChem BioAssay AID652239 (Broad Institute, 2013)
Several values for one entry are separate records, joined by “and”; a condition that tells them apart may be missing. Identical values can stand only once. Activity calls are given as the source filed them. How the calls were made is not given here.

System: not listed separately
Test: V. cholerae BH1578 lux luminescence induction, luxS cqsA deficient, confirmatory dose response (AID 652239)
Conditions: V. cholerae BH1578 lux luminescence induction, 6 h; at 35 µM (top of the series)

SMILES | activation
O=C(CC1CCCCC1)Nc1nnc(-c2ccc3c(c2)CCCC3)o1 | 0.052% (inactive)

Same assay, conditions: V. cholerae BH1578 lux luminescence induction, 6 h; at 80 µM (top of the series)

SMILES | activation
O=C1C(=O)N(Cc2cccc(Cl)c2)c2ccccc21 | 0.06% (inactive)
O=c1nc(Cc2ccccc2)n(-c2cccc(Cl)c2)c2ccccc12 | 3.07% (inactive)
O=C(CSc1nc2ccccc2c(=O)[nH]1)NC1CCCCC1 | 0.004% (inactive)
O=c1ncn(-c2ccc(F)c(Cl)c2)c2ccccc12 | 9.82% (inactive)
O=c1ncn(-c2ccccc2Cl)c2ccccc12 | 1.17% (inactive)
NC(=O)c1ccccc1Nc1ccccc1 | 0.161% (inactive)
CCOC(=O)c1ccccc1Nc1cccc(Cl)c1 | 0.006% (inactive)
O=C(CC1CCCCC1)Nc1nnc(-c2cccnc2)o1 | -0.004% (inactive)
Cc1ccc2c(c1)c(=O)ncn2-c1cccc(Cl)c1 | 6.29% (inactive)
Cc1ccc2cc3c(NC(=O)C4CCCC4)nn(C)c3nc2c1 | 11.2% (inactive)
O=C(Nc1nnc(-c2ccc3c(c2)CCCC3)o1)C1CCC1 | 0% (inactive)
Cc1ccc(-n2cnc(=O)c3ccccc32)cc1Cl | 0.07% (inactive)
O=c1ncn(Cc2ccc(Cl)cc2)c2ccccc12 | 0.451% (inactive)
O=c1ncn(-c2ccc(Cl)cc2)c2ccccc12 | 0.028% (inactive)
COc1cccc(-n2cnc(=O)c3ccccc32)c1 | 2.59% (inactive)
O=c1ncn(-c2cccc(Cl)c2)c2ccc(Cl)cc12 | 8.89% (inactive)
O=c1ncn(-c2ccc(Cl)c(Cl)c2)c2ccccc12 | 0.032% (inactive)
CCC(C)(C)C(=O)Nc1nnc(-c2ccc3c(c2)OCCO3)o1 | -0.001% (inactive)
O=C(Nc1nnc(-c2ccc3c(c2)OCCO3)o1)C1CCCC1 | 1.99% (inactive)

SMILES | activation
COc1ccc2c(=O)ncn(-c3cccc(Cl)c3)c2c1 | 0.036% (inactive)
O=c1[nH]cnc2ccccc12 | 0.09% (inactive)
COc1ccc(-n2cnc(=O)c3ccccc32)cc1Cl | 0.3% (inactive)
CCc1nc(=O)c2ccccc2n1-c1cccc(Cl)c1 | 0.079% (inactive)
O=C(O)c1ccccc1Nc1cccc(Cl)c1 | 0.008% (inactive)
NC(=O)c1ccccc1Nc1cccc(Cl)c1 | 0.057% (inactive)
O=C(Nc1nnc(-c2ccc(Cl)cc2)o1)C1CCCCC1 | -0.011% (inactive)
O=C(CSc1nc2c(c(=O)[nH]1)CCCC2)NC1CCCCC1 | 0.193% (inactive)
O=C(Nc1nnc(-c2cccc(Cl)c2)o1)C1CCCCC1 | 0.061% (inactive)
Cc1ccc2c(=O)ncn(-c3cccc(Cl)c3)c2c1 | 0.04% (inactive)
O=c1ncn(-c2cccc(Cl)c2)c2cccc(Cl)c12 | 0.031% (inactive)
Cn1cnc(=O)c2ccccc21 | 0.029% (inactive)
O=c1nc(-c2ccccc2)n(-c2cccc(Cl)c2)c2ccccc12 | -0.006% (inactive)
Cc1nc(=O)c2ccccc2n1-c1cccc(Cl)c1 | 18.8% (inactive)
Cc1ccc2cc3c(NC(=O)c4ccoc4)nn(C)c3nc2c1 | 0.029% (inactive)
O=C1C(=O)N(Cc2ccccc2Cl)c2ccccc21 | 0.075% (inactive)
COC(=O)c1ccccc1Nc1cccc(Cl)c1 | 0.61% (inactive)
O=c1ncn(-c2cccc(Cl)c2)c2cc(Cl)ccc12 | 0.074% (inactive)

Same assay, conditions: V. cholerae BH1578 lux luminescence induction, 6 h; at 100 µM (top of the series)

SMILES | activation
COc1ccc(-c2nnc(NC(C)=O)o2)cc1 | 0.028% (inactive)
Cc1ccc2cc3c(NC(=O)c4ccc(C)o4)nn(C)c3nc2c1 | 1.77% (inactive)
CCn1nnnc1/N=C/c1ccc(N2CCCCC2)cc1 | 0.106% (inactive)
COc1ccc(-c2nnc(NC(=O)C3CCCCC3)o2)cc1 | 17.9% (inactive)
O=C(Nc1nnc(-c2ccc3c(c2)OCCO3)o1)C(F)(F)c1ccccc1 | -0.004% (inactive)
O=C(Cc1ccc(-c2ccccc2)cc1)NC1CNC1 | 0.01% (inactive)
COc1ccc(S(=O)(=O)Nc2nnc(-c3ccc4c(c3)OCCO4)o2)cc1 | 0.003% (inactive)
C(=N\c1nnc(-c2ccc3c(c2)OCCO3)o1)/c1ccccc1 | 0.004% (inactive)
CC(C)c1ccc2cc3c(NC(=O)c4ccco4)nn(C)c3nc2c1 | 0.153% (inactive)
Cn1ccc(NC(=O)c2ccco2)n1 | 0.036% (inactive)
CCn1nnnc1N | -0.013% (inactive)
O=C(Nc1nnc(-c2ccccc2Cl)o1)C1CCCCC1 | 0.003% (inactive)
O=C(Nc1nnc(C2CCCC2)o1)C1CCCCC1 | -0.003% (inactive)
O=C(Nc1nnc(-c2cccnc2)o1)C1CCC1 | -0.001% (inactive)
O=S(=O)(Nc1nnc(-c2ccc3c(c2)OCCO3)o1)c1ccc(Cl)cc1 | -0.004% (inactive)
CN(C)/C=N/c1nnc(-c2ccc3c(c2)OCCO3)o1 | 0.022% (inactive)
Cc1ccc2cc3c(NC(=O)Cc4ccco4)nn(C)c3nc2c1 | 0.407% (inactive)
O=C(Nc1nnc(-c2ccc3c(c2)OCCO3)o1)C1CCC1 | 0.037% (inactive)
O=C(Nc1nnc(-c2ccncc2)o1)C1CCC1 | 0.028% (inactive)
c1ccc(CNc2nnc(-c3ccc4c(c3)OCCO4)o2)cc1 | 0.001% (inactive)
COc1cccc(-c2nnc(NC(=O)C3CCCCC3)o2)c1 | -0.002% (inactive)
Cc1ccc2cc3c(NC(=O)c4ccccn4)nn(C)c3nc2c1 | -0.001% (inactive)
O=C(Nc1nnc(-c2ccc3c(c2)OCCO3)o1)C1CC1 | 0.001% (inactive)
CN1CCC(C(=O)Nc2nnc(-c3ccc4c(c3)OCCO4)o2)CC1 | 0.02% (inactive)
CCn1nnnc1NC(C)c1ccc(N2CCCC2)cc1 (stereo not drawn) | 11.5% (inactive)
CC(C)(C)OC(=O)N1CCC(C(=O)Nc2nnc(-c3ccc4c(c3)OCCO4)o2)CC1 | 0.011% (inactive)
Cn1nc(NC(=O)c2ccco2)c2cc3ccc(C(C)(C)C)cc3nc21 | 0% (inactive)
Cc1ccc2cc3c(NC(=O)c4cc5ccccc5o4)nn(C)c3nc2c1 | 0.014% (inactive)

System: V. cholerae BH1578 lux luminescence induction, 6 h
Test: as above
Conditions: not given

SMILES | AC40
COc1ccccc1-c1nnc(NC(=O)C2CCCCC2)o1 | > 100 µM (inactive)
CCCCCCCCCC(=O)[C@H](O)CC (racemic) | 14.1 µM
Cc1cc2cc3c(NC(=O)c4ccco4)nn(C)c3nc2cc1C | 42.4 µM
Cc1ccc2cc3c(NC(=O)c4ccco4)nn(C)c3nc2c1 | 11.6 µM and 16.6 µM
Cn1nc(NC(=O)c2ccco2)c2ccccc21 | > 100 µM (inactive)
O=c1ncn(-c2cc(Cl)cc(Cl)c2)c2ccccc12 | 4.71 µM
CCn1nnnc1NCc1ccc(C(C)C)cc1 | 0.563 µM
Cc1cccc(-n2cnc(=O)c3ccccc32)c1 | 75.9 µM
Cc1cc2nc3c(cc2cc1F)c(NC(=O)c1ccco1)nn3C | 37.2 µM
Cc1ccc2cc3c(NC(=O)c4cccs4)nn(C)c3nc2c1 | > 80 µM (inactive)
O=C(Nc1nnc(-c2cccnc2)o1)C1CCCCC1 | > 100 µM (inactive)
O=c1ncn(-c2cccc(Cl)c2)c2ccccc12 | 14.1 µM and 31 µM
Cn1nc(NC(=O)c2ccco2)c2cccnc21 | 22.2 µM
Cn1nc(NC(=O)c2ccco2)c2cc3ccccc3nc21 | 5.43 µM
Cc1cc(F)cc2nc3c(cc12)c(NC(=O)c1ccco1)nn3C | 89.6 µM
O=C(Nc1nnc(-c2ccc3c(c2)OCCO3)o1)C1CCCCCC1 | > 100 µM (inactive)
CCc1ccc2cc3c(NC(=O)c4ccco4)nn(C)c3nc2c1 | 58.9 µM
CC(C)(C)COC(=O)CSc1n[nH]c(=O)[nH]c1=O | 12.5 µM
O=c1ncn(-c2ccccc2)c2ccccc12 | > 80 µM (inactive)
O=C(Cc1ccc(-c2ccccc2)cc1)N[C@@H]1CCOC1 (racemic) | 96.9 µM
O=c1ncn(-c2cccc(F)c2)c2ccccc12 | 33.8 µM
O=C(Nc1nnc(-c2ccc3c(c2)OCCO3)o1)C1CCCCC1 | 7.31 µM and 2.33 µM
O=C(Cc1ccc(-c2ccccc2)cc1)NC1COC1 | > 100 µM (inactive)
COc1ccc2cc3c(NC(=O)c4ccco4)nn(C)c3nc2c1 | 3.82 µM
Cc1cc(F)c2cc3c(NC(=O)c4ccco4)nn(C)c3nc2c1 | > 100 µM (inactive)
O=C(Cc1ccc(-c2ccccc2)cc1)NC1CCC1 | 1.26 µM
CCCCCCCCCC(=O)C(O)CC (stereo not drawn) | 5.27 µM
